Experimental data reported in US9867373B2, “Fungicidal composition having synergistic effect” (JIANGSU HUIFENG AGROCHEMICAL CO., LTD., priority 2013, dated 2018).
Converted amounts (≈) assume the structure as drawn.

Key:
[1] = test system: rust pathogens of wheat; assay: whole plant or invertebrate; type: in vivo
[2] = test system: downy mildew pathogens of cucumber; assay: Toxicity test on downy mildew pathogens of cucumber (disease index and control effect on whole cucumber plant); type: in vivo; settings: for ATI: actual toxicity index
[3] = test system: oomycetes; settings: background statement; cited from earlier work

## COC(=O)N(OC)c1ccccc1COc1ccn(-c2ccc(Cl)cc2)n1 [Pyraclostrobin, pyraclostrobin]
[1]; Triticum aestivum
  EC50: 4.98 µg/mL (≈ 12.8 µM)

## CSC1=N[C@@](C)(c2ccccc2)C(=O)N1Nc1ccccc1 [Fenamidone, fenamidone]
[2]; Cucumis sativus
  EC50: 5.12 µg/mL (≈ 16.4 µM)
[2]; Table 4, with fenamidone
  ATI: 107.62

## Cc1nc(C(F)(F)F)c(C(=O)Nc2c(Br)cc(OC(F)(F)F)cc2Br)s1 [Thifluzamide, thifluzamide]
[1]; Triticum aestivum
  EC50: 5.12 µg/mL (≈ 9.7 µM)

## polyoxin
[2]; Table 6, with polyoxin
  EC50: 5.24 µg/mL
  ATI: 89.89

## COc1ccc(C(=CC(=O)N2CCOCC2)c2ccc(Cl)cc2)cc1OC [Dimethomorph, dimethomorph]
[2]; Table 2, with dimethomorph
  ATI: 63.9
[3]
  concentration at which an inhibitory effect is exerted: < 0.25 µg/mL

## O=C(S)c1cccc2nnsc12 [Acibenzolar, acibenzolar]
[2]; Table 8, with acibenzolar
  EC50: 5.38 µg/mL (≈ 27.4 µM)
  ATI: 91.45

## Fc1ccc([C@]2(Cn3cncn3)O[C@H]2c2ccccc2Cl)cc1 (racemic) [Epoxiconazole, epoxiconazole]
[1]; Triticum aestivum
  EC50: 5.29 µg/mL (≈ 16 µM)

## O=[N+]([O-])c1cc(C(F)(F)F)c(Cl)c([N+](=O)[O-])c1Nc1ncc(C(F)(F)F)cc1Cl [Fluazinam, fluazinam]
[2]; Cucumis sativus
  EC50: 5.19 µg/mL (≈ 11.2 µM)
[2]; Table 9, with fluazinam
  ATI: 97.88

## N#Cc1sc2c(=O)c3ccccc3c(=O)c=2sc1C#N [Dithianon, dithianon]
[2]; Cucumis sativus
  EC50: 5.34 µg/mL (≈ 18 µM)
[2]; Table 5, with dithianon
  ATI: 88.39

## CC(C)OC(=O)N[C@H](C(=O)N[C@H](C)c1nc2ccc(F)cc2s1)C(C)C [Benthiavalicarb-isopropyl, benthiavalicarb-isopropyl]
[2]; Cucumis sativus
  EC50: 5.41 µg/mL (≈ 14.2 µM)
[2]; Table 1, with benthiavalicarb-isopropyl
  ATI: 60.1

## CO/C=C(/C(=O)OC)c1ccccc1COc1cccc(C(F)(F)F)n1 [Picoxystrobin, picoxystrobin]
[1]; Table 15, with picoxystrobin
  EC50: 5.68 µg/mL (≈ 15.5 µM)
[1]; actual toxicity index, Table 15, with picoxystrobin
  ATI: 87.68

## Cc1cc(C2CC2)nc(Nc2ccccc2)n1 [Cyprodinil, cyprodinil]
[1]; Triticum aestivum
  EC50: 5.87 µg/mL (≈ 26.1 µM)

## CON=C(C(=O)OC)c1ccccc1CON=C(C)c1cccc(C(F)(F)F)c1 [Trifloxystrobin, trifloxystrobin]
[1]; Triticum aestivum
  EC50: 4.75 µg/mL (≈ 11.6 µM)

## CC(C)NC(=O)N1CC(=O)N(c2cc(Cl)cc(Cl)c2)C1=O [Iprodione, iprodione]
[1]; Triticum aestivum
  EC50: 5.35 µg/mL (≈ 16.2 µM)

## CCC(C)(NC(=O)c1cc(Cl)c(C)c(Cl)c1)C(=O)CCl (stereo not shown) [Zoxamide, zoxamide]
[2]; Cucumis sativus
  EC50: 5.11 µg/mL (≈ 15.2 µM)
[2]; Table 7, with zoxamide
  ATI: 95.69

## CC1COC(Cn2cncn2)(c2ccc(Oc3ccc(Cl)cc3)cc2Cl)O1 (stereo not shown) [Difenoconazole, difenoconazole]
[1]; Triticum aestivum
  EC50: 5.45 µg/mL (≈ 13.4 µM)

## CO/C=C(/C(=O)OC)c1ccccc1Oc1cc(Oc2ccccc2C#N)ncn1 [Azoxystrobin, azoxystrobin]
[2]; Table 3, with azoxystrobin
  EC50: 5.82 µg/mL (≈ 14.4 µM)
  ATI: 72.34

## OC(Cc1ccccc1Cl)(Cn1nc[nH]c1=S)C1(Cl)CC1 (stereo not shown) [Prothioconazole, prothioconazole]
[1]; Triticum aestivum
  EC50: 5.12 µg/mL (≈ 14.9 µM)
